Reference: patent publication US5395947A, “Platinum(II) complex and processes for preparing the same” (Sunkyong Industries, Ltd., priority 1991, dated 1995)

Columns and labels:
[1] = system: murine leukemia L1210 cells; experiment: Growth inhibition test on cultured murine leukemia L1210 cells; type: cell-based; details: 48 hours, 37° C., Trypan blue viability
Protocol: 1. Growth inhibition test on cultured murine leukemia L1210 cells
Murine leukemia L1210 cells(1×10^5) were treated with various concentrations of the compounds prepared in the above examples in RPMI 1640 medium supplemented with 10% fetal calf serum, and cultured in a 5% CO2 humidified incubator at 37° C. for 48 hours. Their viability, estimated by staining with 0.17% Trypan blue, was compared with that of control cells cultured in the identical medium without the compounds.

murine leukemia L1210 = experiment: Antitumor activity test on murine leukemia L1210 in vivo; parameters: species or system male BDF1 mice; details: days 1, 5, 9
Protocol: 2. Antitumor activity test on murine leukemia L1210 in vivo
Murine leukemia L1210 cells were maintained in the peritoneal cavities of 6-week-old male DBA/2 mice by weekly transfer in accordance with the procedure described in cancer chemotherapy Reports, Part 3, 3(2), 7 (1972). Specifically, 1×10^6 leukemia cells were inoculated into the abdominal cavities of 6-week-old male BDF1 mice weighing 21±3 g on day 0. Each treatment group consisted of seven mice. The test compounds were dissolved or suspended in 0.5% carboxymethyl cellulose(CMC)solution (in water) and were administered intraperitoneally on days 1, 5, and 9 relative to the tumor inoculation.
Thirty mice of 6-week-old male BDF1 weighing 21±3 g were used as the control group, which were injected with 0.5% CMC solution only in the same manner as above.
Anti-tumor activities of the compounds were evaluated in terms of the T/C % values calculated from the mean survival time(T) of the compound-treated group over that(C) of the control group. [formula]

[2] = Test for water solubility; type: physicochemical; details: water
Source text: 3. Test for water solubility
A standard plot of UV absorbance(220 nm) vs. concentration was made; and employed to determine water-solubility.
The mixture was then passed through a 0.45 micron disposable membrane filter before dilution and UV measurement.

ICR mice = experiment: Acute toxicity test; type: in vivo; parameters: Lethality: unit not given here; details: for Lethality: 10080 min
Protocol: 7-week-old ICR mice(male: 34±2 g; female: 31±2 g) were fed with solid food and water under the condition of 23±1° C. temperature and 65±5% humidity before the test.
Each treatment group consisted of 6 mice. The test compounds were administered intraperitoneally.
For 7 days after the administration, the appearance and the fate of the tested animals were recorded. The dead animals were subjected to autopsy and their visible pathological changes were observed. Their viscerals were stored in 10% formalin solution.

## CC1(C)O[C@H](CN)[C@@H](CN)O1.O=C1C[O][Pt][O]1 [Example 2, (glycolato-O,O')[(4R,5R)-4,5-bis(aminomethyl)-2,2-dimethyl-1,3-dioxolane]platinum(II)]
[1]
  IC50 (concentration required for 50% inhibition of growth): 0.15 µg/mL
Murine leukemia L1210; 3.1 mg/kg i.p.
  T/C (%): 112%
Murine leukemia L1210; 6.2 mg/kg i.p.
  T/C (%): 179%
Murine leukemia L1210; 12.5 mg/kg i.p.
  T/C (%): 201%
Murine leukemia L1210; 25 mg/kg i.p.
  T/C (%): toxic
Murine leukemia L1210; 50 mg/kg i.p.
  T/C (%): toxic
[2]
  Solubility in water: 17.5 mg/mL
ICR mice; female, 25.0 mg/kg i.p.
  Number of dead mice for 7 days: 0/6
  Number of dead mice, 1st day: 0/6
ICR mice; female, 32.5 mg/kg i.p.
  Number of dead mice for 7 days: 3/6
  Number of dead mice, 1st day: 0/6
  Number of dead mice, 3rd day: 2/6
  Number of dead mice, 4th day: 1/4
  Lethality: 50.0
ICR mice; female, 42.3 mg/kg i.p.
  Number of dead mice for 7 days: 4/6
  Number of dead mice, 1st day: 0/6
  Number of dead mice, 3rd day: 3/6
  Number of dead mice, 4th day: 1/3
  Lethality: 66.7
ICR mice; female, 55.0 mg/kg i.p.
  Number of dead mice for 7 days: 6/6
  Number of dead mice, 1st day: 0/6
  Number of dead mice, 3rd day: 4/6
  Number of dead mice, 4th day: 1/2
  Number of dead mice, 5th day: 1/1
  Lethality: 100.0
ICR mice; female, 71.4 mg/kg i.p.
  Number of dead mice for 7 days: 6/6
  Number of dead mice, 1st day: 0/6
  Number of dead mice, 3rd day: 4/6
  Number of dead mice, 4th day: 2/2
  Lethality: 100.0
ICR mice; male, 25.0 mg/kg i.p.
  Number of dead mice for 7 days: 0/6
  Number of dead mice, 1st day: 0/6
ICR mice; male, 32.5 mg/kg i.p.
  Number of dead mice for 7 days: 3/6
  Number of dead mice, 1st day: 0/6
  Number of dead mice, 3rd day: 1/6
  Number of dead mice, 4th day: 1/5
  Number of dead mice, 5th day: 1/4
  Lethality: 50.0
ICR mice; male, 42.3 mg/kg i.p.
  Number of dead mice for 7 days: 5/6
  Number of dead mice, 1st day: 0/6
  Number of dead mice, 3rd day: 3/6
  Number of dead mice, 4th day: 2/3
  Lethality: 83.3
ICR mice; male, 55.0 mg/kg i.p.
  Number of dead mice for 7 days: 6/6
  Number of dead mice, 1st day: 0/6
  Number of dead mice, 3rd day: 4/6
  Number of dead mice, 4th day: 1/2
  Number of dead mice, 5th day: 1/1
  Lethality: 100.0
ICR mice; male, 71.4 mg/kg i.p.
  Number of dead mice for 7 days: 6/6
  Number of dead mice, 1st day: 0/6
  Number of dead mice, 3rd day: 4/6
  Number of dead mice, 4th day: 2/2
  Lethality: 100.0

## NC[C@H]1OC2(CCCC2)O[C@@H]1CN.O=C1C[O][Pt][O]1 [Example 3, (glycolato-O,O')[(4R,5R)-4,5-bis(aminomethyl)-1,3-dioxolane-2-spiro-1'-cyclopentane]platinum (II)]
[1]
  IC50 (concentration required for 50% inhibition of growth): 0.10 µg/mL
Murine leukemia L1210; 3.1 mg/kg i.p.
  T/C (%): 154%
Murine leukemia L1210; 6.2 mg/kg i.p.
  T/C (%): 161%
Murine leukemia L1210; 12.5 mg/kg i.p.
  T/C (%): 295%
Murine leukemia L1210; 25 mg/kg i.p.
  T/C (%): toxic
Murine leukemia L1210; 50 mg/kg i.p.
  T/C (%): toxic
[2]
  Solubility in water: 5.8 mg/mL
ICR mice; female, 25.0 mg/kg i.p.
  Number of dead mice for 7 days: 0/6
  Number of dead mice, 1st day: 0/6
ICR mice; female, 32.5 mg/kg i.p.
  Number of dead mice for 7 days: 0/6
  Number of dead mice, 1st day: 0/6
ICR mice; female, 42.3 mg/kg i.p.
  Number of dead mice for 7 days: 2/6
  Number of dead mice, 1st day: 0/6
  Number of dead mice, 4th day: 1/6
  Number of dead mice, 5th day: 1/5
  Lethality: 33.3
ICR mice; female, 55.0 mg/kg i.p.
  Number of dead mice for 7 days: 5/6
  Number of dead mice, 1st day: 0/6
  Number of dead mice, 3rd day: 4/6
  Number of dead mice, 4th day: 1/2
  Lethality: 83.2
ICR mice; female, 71.4 mg/kg i.p.
  Number of dead mice for 7 days: 6/6
  Number of dead mice, 1st day: 0/6
  Number of dead mice, 3rd day: 4/6
  Number of dead mice, 4th day: 2/2
  Lethality: 100.0
ICR mice; male, 25.0 mg/kg i.p.
  Number of dead mice for 7 days: 0/6
  Number of dead mice, 1st day: 0/6
ICR mice; male, 32.5 mg/kg i.p.
  Number of dead mice for 7 days: 0/6
  Number of dead mice, 1st day: 0/6
  Number of dead mice, 4th day: 1/6
ICR mice; male, 42.3 mg/kg i.p.
  Number of dead mice for 7 days: 2/6
  Number of dead mice, 1st day: 0/6
  Number of dead mice, 4th day: 1/6
  Lethality: 33.3
ICR mice; male, 55.0 mg/kg i.p.
  Number of dead mice for 7 days: 6/6
  Number of dead mice, 1st day: 0/6
  Number of dead mice, 3rd day: 4/6
  Number of dead mice, 4th day: 1/2
  Number of dead mice, 5th day: 1/1
  Lethality: 100.0
ICR mice; male, 71.4 mg/kg i.p.
  Number of dead mice for 7 days: 6/6
  Number of dead mice, 1st day: 0/6
  Number of dead mice, 3rd day: 4/6
  Number of dead mice, 4th day: 2/2
  Lethality: 100.0
